Test results taken from patent US20250129078A1, “ERBB2 INHIBITORS” (Cogent Biosciences, Inc., priority 2023, published 2025).
Counter-ions that a name gives are not always drawn.

target: EGFR WT (Homo sapiens (Human), UniProt P00533); test: ErbB enzyme assay (CisBio HTRF-KinEASE-TK), EGFR WT; format: biochemical; conditions: ATP at Km (25 μM), 1 h incubation
In short: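 Tyrosine kinase HTRF, 1 h RT reaction → quench (Sa-XL665/TK-Ab-Cryptate) → 1 h RT → 655/620 ratio.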

EGFR WT, sequence (P00533 25-1210): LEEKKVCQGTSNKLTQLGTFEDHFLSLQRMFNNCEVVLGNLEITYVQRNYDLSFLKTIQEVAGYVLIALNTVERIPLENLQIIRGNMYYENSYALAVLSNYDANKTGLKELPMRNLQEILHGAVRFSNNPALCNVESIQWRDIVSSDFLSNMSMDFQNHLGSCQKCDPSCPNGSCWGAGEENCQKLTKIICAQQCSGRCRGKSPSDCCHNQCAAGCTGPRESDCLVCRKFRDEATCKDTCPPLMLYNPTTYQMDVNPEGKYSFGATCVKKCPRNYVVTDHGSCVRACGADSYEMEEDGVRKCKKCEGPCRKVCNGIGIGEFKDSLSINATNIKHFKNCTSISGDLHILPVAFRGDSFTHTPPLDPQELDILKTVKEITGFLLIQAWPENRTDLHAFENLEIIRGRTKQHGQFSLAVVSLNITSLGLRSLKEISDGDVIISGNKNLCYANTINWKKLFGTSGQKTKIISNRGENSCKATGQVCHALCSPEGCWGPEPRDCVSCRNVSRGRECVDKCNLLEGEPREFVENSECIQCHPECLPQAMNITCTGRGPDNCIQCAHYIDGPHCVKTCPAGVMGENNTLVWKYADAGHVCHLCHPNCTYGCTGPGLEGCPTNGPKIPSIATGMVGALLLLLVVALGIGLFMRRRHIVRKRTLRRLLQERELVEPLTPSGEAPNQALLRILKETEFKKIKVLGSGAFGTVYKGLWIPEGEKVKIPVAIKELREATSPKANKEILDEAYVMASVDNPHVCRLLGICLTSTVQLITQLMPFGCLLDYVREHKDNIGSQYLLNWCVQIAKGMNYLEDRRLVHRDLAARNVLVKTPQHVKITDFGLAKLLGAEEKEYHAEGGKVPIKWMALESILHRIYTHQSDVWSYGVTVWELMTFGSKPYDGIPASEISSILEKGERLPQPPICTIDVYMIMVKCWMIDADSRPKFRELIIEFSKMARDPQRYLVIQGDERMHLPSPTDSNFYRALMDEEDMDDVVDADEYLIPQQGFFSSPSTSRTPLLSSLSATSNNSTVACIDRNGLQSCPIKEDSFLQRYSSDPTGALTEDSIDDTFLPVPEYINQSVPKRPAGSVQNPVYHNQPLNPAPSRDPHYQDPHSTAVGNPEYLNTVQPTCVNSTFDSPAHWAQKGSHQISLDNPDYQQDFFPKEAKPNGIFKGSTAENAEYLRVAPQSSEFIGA

`C=CC(=O)N1CCN(c2ncc3ncnc(Nc4ccc(Oc5ccc6c(c5)nnn6C)c(C)c4)c3n2)C[C@@H]1C(C)C` [Compound 122, (S)-1-(2-isopropyl-4-(8-((3-methyl-4-((1-methyl-1H-benzo[d][1,2,3]triazol-5-yl)oxy)phenyl)amino)pyrimido[5,4-d]pyrimidin-2-yl)piperazin-1-y1)prop-2-en-1-one] and `C=CC(=O)N1CCCN(c2ncc3ncnc(Nc4ccc(Oc5ccc6c(c5)nnn6C)c(C)c4)c3n2)C[C@H]1C` [Compound 227, (R)-1-(2-methyl-4-(8-((3-methyl-4-((1-methyl-1H-benzo[d][1,2,3]triazol-5-yl)oxy)phenyl)amino)pyrimido[5,4-d]pyrimidin-2-yl)-1,4-diazepan-1-yl)prop-2-en-1-one] cannot be ordered by IC50: no less than 1000 nM for the first, no less than 1000 nM for the second.

`C=CC(=O)N1CCN(c2ccc3ncnc(Nc4cc(C)c(Oc5cc(F)c6c(c5)ncn6C)cc4OC)c3n2)CC1` [Compound 372, 1-(4-(4-((4-((7-fluoro-1-methyl-1H-benzo[d]imidazol-5-yl)oxy)-2-methoxy-5-methylphenyl)amino)pyrido[3,2-d]pyrimidin-6-yl)piperazin-1-yl)prop-2-en-1-one] and `C=CC(=O)N1CCN(c2ccc3ncnc(Nc4cc(C)c(Oc5cc(F)c6c(c5)ncn6C)cc4OC)c3n2)C[C@H]1C` [Compound 310, (R)-1-(4-(4-((4-((7-fluoro-1-methyl-1H-benzo[d]imidazol-5-yl)oxy)-2-methoxy-5-methylphenyl)amino)pyrido[3,2-d]pyrimidin-6-yl)-2-methylpiperazin-1-yl)prop-2-en-1-one] fall in the same range of IC50: 100 to 500 nM for the first, 100 to 500 nM for the second.

`C=CC(=O)N[C@H]1CN(c2ccc3ncnc(Nc4ccc(Oc5ccc6c(c5)nnn6C)c(C)c4F)c3n2)CC[C@@H]1C` [Compound 350, N-((3R,4S)-1-(4-((2-fluoro-3-methyl-4-((1-methyl-1H-benzo[d][1,2,3]triazol-5-yl)oxy)phenyl)amino)pyrido[3,2-d]pyrimidin-6-yl)-4-methylpiperidin-3-yl)acrylamide] and `C=CC(=O)N[C@@H]1CN(c2ccc3ncnc(Nc4ccc(Oc5ccc6c(c5)nnn6C)c(C)c4F)c3n2)CC[C@H]1C` (single isomer, unassigned) [Compound 347] fall in the same range of IC50: 100 to 500 nM for the first, 100 to 500 nM for the second.

`C=C(F)C(=O)N1CC2CCC1CN2c1ccc2ncnc(Nc3ccc(Oc4ccc5c(c4)nnn5C)c(C)c3)c2n1` (stereo not shown) [Compound 88, 2-fluoro-1-(5-(4-((3-methyl-4-((1-methyl-1H-benzo[d][1,2,3]triazol-5-yl)oxy)phenyl)amino)pyrido[3,2-d]pyrimidin-6-yl)-2,5-diazabicyclo[2.2.2]octan-2-yl)prop-2-en-1-one] and `C=C(F)C(=O)N1C2C=C(c3ccc4ncnc(Nc5ccc(Oc6ccc7c(c6)nnn7C)c(C)c5)c4n3)CC1COC2` (stereo not shown) [Compound 410, 2-fluoro-1-(7-(4-((3-methyl-4-((1-methyl-1H-benzo[d][1,2,3]triazol-5-yl)oxy)phenyl)amino)pyrido[3,2-d]pyrimidin-6-yl)-3-oxa-9-azabicyclo[3.3.1]non-6-en-9-yl)prop-2-en-1-one trifluoroacetate] cannot be ordered by IC50: no less than 1000 nM for the first, no less than 1000 nM for the second.

First: C=CC(=O)N1CCN(c2ncc3ncnc(Nc4cc(C)c(Oc5cc(F)c6c(c5)ncn6C)cc4OC)c3n2)C[C@H]1C [Compound 41, (R)-1-(4-(8-((4-((7-fluoro-1-methyl-1H-benzo[d]imidazol-5-yl)oxy)-2-methoxy-5-methylphenyl)amino)pyrimido[5,4-d]pyrimidin-2-y1)-2-methylpiperazin-1-y1)prop-2-en-1-one]
Second: C=CC(=O)N1CCN(c2ncc3ncnc(Nc4ccc(Oc5cc(F)c6c(c5)ncn6C)c(C)c4)c3n2)C[C@H]1C [Compound 159, (R)-1-(4-(8-((4-((7-fluoro-1-methyl-1H-benzo[d]imidazol-5-yl)oxy)-3-methylphenyl)amino)pyrimido[5,4-d]pyrimidin-2-yl)-2-methylpiperazin-1-yl)prop-2-en-1-one]
The IC50 of the first is higher: 100 to 500 nM for the first, 50 to 100 nM for the second.

First: C=CC(=O)N[C@@H]1CCN(c2ccc3ncnc(Nc4ccc(Oc5ccc6c(c5)nnn6C)c(C)c4F)c3n2)C[C@@H]1F [Compound 279, N-((3S,4R)-3-fluoro-1-(4-((2-fluoro-3-methyl-4-((1-methyl-1H-benzo[d][1,2,3]triazol-5-yl)oxy)phenyl)amino)pyrido[3,2-d]pyrimidin-6-yl)piperidin-4-yl)acrylamide]
Second: C=CC(=O)N[C@H]1CN(c2ccc3ncnc(Nc4ccc(Oc5ccc6c(c5)nnn6C)c(C)c4)c3n2)C[C@@H]1F [Compound 276, N-((3S,4S)-4-fluoro-1-(4-((3-methyl-4-((1-methyl-1H-benzo[d][1,2,3]triazol-5-yl)oxy)phenyl)amino)pyrido[3,2-d]pyrimidin-6-yl)pyrrolidin-3-yl)acrylamide]
The IC50 of the first is higher: 500 to 1000 nM for the first, 100 to 500 nM for the second.

First: C=C1CCN(C2CCN(c3ccc4ncnc(Nc5ccc(Oc6ccc7c(c6)nnn7C)c(C)c5F)c4n3)CC2)C1=O [Compound 241, 1-(1-(4-((2-fluoro-3-methyl-4-((1-methyl-1H-benzo[d][1,2,3]triazol-5-yl)oxy)phenyl)amino)pyrido[3,2-d]pyrimidin-6-yl)piperidin-4-yl)-3-methylenepyrrolidin-2-one]
Second: C=CC(=O)N[C@]1(C)CCCN(c2ccc3ncnc(Nc4ccc(Oc5ccc6c(c5)nnn6C)c(C)c4F)c3n2)C1 [Compound 303, (R)-N-(1-(4-((2-fluoro-3-methyl-4-((1-methyl-1H-benzo[d][1,2,3]triazol-5-yl)oxy)phenyl)amino)pyrido[3,2-d]pyrimidin-6-yl)-3-methylpiperidin-3-yl)acrylamide]
The IC50 of the first is higher: no less than 1000 nM for the first, less than 50 nM for the second. The second is the more potent here.

First: C=CC(=O)N1CCN(c2ncc3ncnc(Nc4ccc(Oc5ccc6c(c5)nnn6C)cc4Cl)c3n2)CC1 [Compound 29, 1-(4-(8-((2-chloro-4-((1-methyl-1H-benzo[d][1,2,3]triazol-5-yl)oxy)phenyl)amino)pyrimido[5,4-d]pyrimidin-2-yl)piperazin-1-yl)prop-2-en-1-one]
Second: C=CC(=O)N1CCN(c2nc3c(Nc4ccc(Oc5ccc6c(c5)nnn6C)c(C)c4)ncnc3cc2F)CC1 [Compound 373, 1-(4-(7-fluoro-4-((3-methyl-4-((1-methyl-1H-benzo[d][1,2,3]triazol-5-yl)oxy)phenyl)amino)pyrido[3,2-d]pyrimidin-6-yl)piperazin-1-yl)prop-2-en-1-one]
The IC50 of the first is higher: no less than 1000 nM for the first, 100 to 500 nM for the second. The second is the more potent here.

Compared with `Cc1cc(Nc2ncnc3cnc(N4CCN(C(=O)/C=C/Cn5cccn5)CC4)nc23)ccc1Oc1ccc2c(c1)nnn2C` [Compound 233, (E)-1-(4-(8-((3-methyl-4-((1-methyl-1H-benzo[d][1,2,3]triazol-5-yl)oxy)phenyl)amino)pyrimido[5,4-d]pyrimidin-2-yl)piperazin-1-yl)-4-(1H-pyrazol-1-yl)but-2-en-1-one], `[2H]C1([2H])N(C(=O)C=C)C([2H])([2H])C([2H])([2H])N(c2ncc3ncnc(Nc4ccc(Oc5ccc6c(c5)nnn6C)c(C)c4)c3n2)C1([2H])[2H]` [Compound 36, 1-(4-(8-((3-methyl-4-((1-methyl-1H-benzo[d][1,2,3]triazol-5-yl)oxy)phenyl)amino)pyrimido[5,4-d]pyrimidin-2-yl)piperazin-1-yl-2,2,3,3,5,5,6,6-d8)prop-2-en-1-one] is lower in IC50: no less than 1000 nM for the first, less than 50 nM for the second.

First: C=CC(=O)N1CCN(c2ccc3ncnc(Nc4cc(C)c(Oc5ccc6c(c5)nnn6C)cc4OC)c3n2)CC1 [Compound 79, 1-(4-(4-((2-methoxy-5-methyl-4-((1-methyl-1H-benzo[d][1,2,3]triazol-5-yl)oxy)phenyl)amino)pyrido[3,2-d]pyrimidin-6-yl)piperazin-1-yl)prop-2-en-1-one]
Second: C=CC(=O)N1CCN(c2ccc3ncnc(Nc4ccc(Oc5ccc6c(c5)nnn6C)c(C)c4)c3n2)C[C@H]1CC#N [Compound 84, (R)-2-(1-acryloyl-4-(4-((3-methyl-4-((1-methyl-H-benzo[d][1,2,3]triazol-5-yl)oxy)phenyl)amino)pyrido[3,2-d]pyrimidin-6-yl)piperazin-2-yl)acetonitrile]
The IC50 of the first is higher: 100 to 500 nM for the first, less than 50 nM for the second.

First: C=C(F)C(=O)N1CC[C@H](N(C)c2ccc3ncnc(Nc4ccc(Oc5ccc6c(c5)nnn6C)c(C)c4F)c3n2)C1 [Compound 365, (S)-2-fluoro-1-(3-((4-((2-fluoro-3-methyl-4-((1-methyl-1H-benzo[d][1,2,3]triazol-5-yl)oxy)phenyl)amino)pyrido[3,2-d]pyrimidin-6-yl)(methyl)amino)pyrrolidin-1-yl)prop-2-en-1-one]
Second: COC[C@@H]1CN(c2ccc3ncnc(Nc4ccc(Oc5ccc6c(c5)nnn6C)c(C)c4)c3n2)CCN1C(=O)/C=C/CF [Compound 363, (S,E)-4-fluoro-1-(2-(methoxymethyl)-4-(4-((3-methyl-4-((1-methyl-1H-benzo[d][1,2,3]triazol-5-yl)oxy)phenyl)amino)pyrido[3,2-d]pyrimidin-6-yl)piperazin-1-yl)but-2-en-1-one]
The IC50 of the first is higher: no less than 1000 nM for the first, 50 to 100 nM for the second.

`C=CC(=O)N1CC(Oc2ncc3ncnc(Nc4ccc(Oc5ccc6c(c5)ncn6C)c(C)c4)c3n2)C1` [Compound 383, 1-(3-((8-((3-methyl-4-((1-methyl-1H-benzo[d]imidazol-5-yl)oxy)phenyl)amino)pyrimido[5,4-d]pyrimidin-2-yl)oxy)azetidin-1-yl)prop-2-en-1-one] and `C=CC(=O)N1CCN(c2ccc3ncnc(Nc4ccc(Oc5cc6ncnn6cn5)c(C)c4)c3n2)CC1(C)C` [Compound 328, 1-(4-(4-((4-([1,2,4]triazolo[1,5-c]pyrimidin-7-yloxy)-3-methylphenyl)amino)pyrido[3,2-d]pyrimidin-6-yl)-2,2-dimethylpiperazin-1-yl)prop-2-en-1-one] cannot be ordered by IC50: less than 50 nM for the first, less than 50 nM for the second.

`C=CC(=O)N1CCN(c2ncc3ncnc(Nc4ccc(Oc5cc6nnn(C)c6c(C)c5F)c(C)c4)c3n2)C[C@H]1C` [Compound 236, (R)-1-(4-(8-((4-((6-fluoro-1,7-dimethyl-1H-benzo[d][1,2,3]triazol-5-yl)oxy)-3-methylphenyl)amino)pyrimido[5,4-d]pyrimidin-2-yl)-2-methylpiperazin-1-yl)prop-2-en-1-one] gave an IC50 of 100 to 500 nM.
